Assay results: patent US9365546B2, “Substituted pyridinone-pyridinyl compounds” (CONFLUENCE LIFE SCIENCES INC., priority 2010, dated 2016)
“And” between values parts separate entries of the source, which are not always exact repeats. Identical values can stand only once.

Key:
[1] = target: p38/PRAK (Homo sapiens (Human), UniProt Q16539); assay: p38α/PRAK cascade assay (phosphorylation of Hsp27 peptide, Caliper LabChip 3000); format: biochemical; conditions: activated p38α 20 pM, GST-PRAK 1 nM, Hsp27 peptide 1 μM, MgATP 10 μM; two values per cell
Protocol: (§1) P38 Inhibitory Potency and P38/MK2 Substrate Selectivity: The novel, MK2 substrate-selective inhibitory mechanism of compounds is evaluated in enzyme assays comparing inhibitor potency in blocking p38/MK2 versus p38/PRAK induced phosphorylation of an HSP-27 derived peptide substrate. The ability of compounds to inhibit activated phospho-p38α is evaluated using a p38α/MK2 and a p38α/PRAK cascade assay format. The kinase activity of p38α is determined by its ability to phosphorylate GST-MK2 or GST-PRAK. Activation of MK2 or PRAK by p38α is quantitated by measuring the phosphorylation of a fluorescently-labeled, MK2 specific peptide substrate, Hsp27 peptide ([…]). The phosphorylation of the Hsp27 peptide is quantified using the Caliper LabChip 3000. Kinase reactions is carried out in a 384-well plate (Matrical, MP101-1-PP) in 20 mM HEPES pH 7.5, 10 mM MgCl2, 0.0005% Tween-20, 0.01% BSA, 1 mM DTT, and 2% DMSO. […] The p38α compound inhibitory potency is quantitated from dose-response IC50 values or Ki values from p38α/MK2 cascade assays while the substrate selectivity is calculated as a ratio of p38α/PRAK:p38α/MK2 IC50 values. Species compounds of Formula (I), described hereinabove, evaluated in this assay, are expected to provide a therapeutic benefit in the treatment of p38 kinase mediated diseases, such as autoimmune diseases and lymphoma.

[2] = target: p38/MK2 (Homo sapiens (Human), UniProt Q16539); assay: p38α/MK2 cascade assay (phosphorylation of Hsp27 peptide, Caliper LabChip 3000); format: biochemical; conditions: activated p38α 20 pM, His6-MK2 1 nM, Hsp27 peptide 1 μM, MgATP 10 μM; two values per cell
Protocol: as §1, with “The kinase activity of p38α is determined by its ability to phosphorylate GST-MK2 or GST-PRAK.” left out

Chain of p38/PRAK (Q16539 whole entry): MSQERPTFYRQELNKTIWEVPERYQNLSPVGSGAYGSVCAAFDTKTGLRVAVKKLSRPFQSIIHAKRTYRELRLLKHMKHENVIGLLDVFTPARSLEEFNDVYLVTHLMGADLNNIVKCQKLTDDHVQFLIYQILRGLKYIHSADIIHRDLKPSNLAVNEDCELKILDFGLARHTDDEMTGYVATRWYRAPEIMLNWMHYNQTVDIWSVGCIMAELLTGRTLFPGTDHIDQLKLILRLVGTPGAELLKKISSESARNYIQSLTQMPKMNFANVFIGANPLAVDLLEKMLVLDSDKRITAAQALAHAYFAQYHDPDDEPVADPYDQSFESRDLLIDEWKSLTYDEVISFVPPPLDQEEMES
Chain of p38/MK2 (Q16539 whole entry): as above
Chain of p38/MK2 (P49137 whole entry partner): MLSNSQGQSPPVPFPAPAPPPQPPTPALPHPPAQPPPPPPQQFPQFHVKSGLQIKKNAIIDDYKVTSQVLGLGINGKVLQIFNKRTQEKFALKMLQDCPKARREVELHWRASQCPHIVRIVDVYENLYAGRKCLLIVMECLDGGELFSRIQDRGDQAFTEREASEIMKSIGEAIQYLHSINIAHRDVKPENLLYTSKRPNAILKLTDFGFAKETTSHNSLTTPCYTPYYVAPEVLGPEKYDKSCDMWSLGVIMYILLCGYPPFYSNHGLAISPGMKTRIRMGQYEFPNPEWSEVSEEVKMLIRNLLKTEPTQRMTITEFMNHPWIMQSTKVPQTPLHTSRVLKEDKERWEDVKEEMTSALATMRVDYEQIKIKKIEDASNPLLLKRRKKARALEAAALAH

Row | IC50 [1] | IC50 [2] | SMILES
1 | 138 nM and 144 nM | 6.4 nM and 7.3 nM | Cc1cnc(-c2ccnc(C(C)(C)O)n2)cc1-n1c(C)cc(OCc2ccc(F)cc2F)c(Cl)c1=O [Example 284, 3-chloro-4-((2,4-difluorobenzyl)oxy)-2′-(2-(2-hydroxypropan-2-yl)pyrimidin-4-yl)-5′,6-dimethyl-2H-[1,4′-bipyridin]-2-one]
2 | 121 nM and 210 nM | 18 nM and 26 nM | Cc1cnc(-c2ccnc(C(C)(C)C)n2)cc1-n1c(C)cc(OCc2ccc(F)cc2F)c(Cl)c1=O [Example 285, 2′-(2-(tert-butyl)pyrimidin-4-yl)-3-chloro-4-((2,4-difluorobenzyl)oxy)-5′,6-dimethyl-2H-[1,4′-bipyridin]-2-one]
